Experimental data from PubChem BioAssay AID330 (DTP/NCI, 2004).
Values joined by “and” are separate entries in the source; they are usually repeats but may differ in a detail not shown here. Equal values may be shown once. Inconclusive results and toxic doses are left out. The calls were made as follows: active = survival T/C of 150% or more; inactive = T/C below 125% in these data.

Tested on: P388 leukemia ip, CD2F1 mice, survival T/C
Assay: NCI In Vivo Anticancer Drug Screen. Data for tumor model P388 Leukemia (intraperitoneal) in CD2F1 (CDF1) mice
Conditions: endpoint: median survival time, higher = longer survival
Method in brief: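 Mice carrying the transplanted tumor received test compound or vehicle. Survival was recorded in each group, and the value is the treated-group measurement divided by that of the vehicle-treated control group.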

[1] = dose: 50.0 mg/kg/injection, schedule: Q01DX005 (ip), vehicle: saline with Tween-80
[2] = dose: 100.0 mg/kg/injection, schedule: Q01DX005 (ip), vehicle: saline with Tween-80
[3] = dose: 25.0 mg/kg/injection, schedule: Q01DX005 (ip), vehicle: Klucel (hydroxypropylcellulose) (HPC)
[4] = dose: 50.0 mg/kg/injection, schedule: Q01DX005 (ip), vehicle: Klucel (hydroxypropylcellulose) (HPC)
[5] = dose: 100.0 mg/kg/injection, schedule: Q01DX005 (ip), vehicle: Klucel (hydroxypropylcellulose) (HPC)
[6] = dose: 200.0 mg/kg/injection, schedule: Q01DX005 (ip), vehicle: Klucel (hydroxypropylcellulose) (HPC)
[7] = dose: 25.0 mg/kg/injection, schedule: Q01DX009 (ip), vehicle: saline
[8] = dose: 50.0 mg/kg/injection, schedule: Q01DX009 (ip), vehicle: saline
[9] = dose: 100.0 mg/kg/injection, schedule: Q01DX009 (ip), vehicle: saline
[10] = dose: 60.0 mg/kg/injection, schedule: Q01DX005 (ip), vehicle: Klucel + Tween-80
[11] = dose: 120.0 mg/kg/injection, schedule: Q01DX005 (ip), vehicle: Klucel + Tween-80
[12] = dose: 240.0 mg/kg/injection, schedule: Q01DX005 (ip), vehicle: Klucel + Tween-80
[13] = dose: 60.0 mg/kg/injection, schedule: Q01DX005 (ip), vehicle: Klucel (hydroxypropylcellulose) (HPC)
[14] = dose: 120.0 mg/kg/injection, schedule: Q01DX005 (ip), vehicle: Klucel (hydroxypropylcellulose) (HPC)
[15] = dose: 240.0 mg/kg/injection, schedule: Q01DX005 (ip), vehicle: Klucel (hydroxypropylcellulose) (HPC)
[16] = dose: 50.0 mg/kg/injection, schedule: Q01DX009 (ip), vehicle: Klucel (hydroxypropylcellulose) (HPC)
[17] = dose: 100.0 mg/kg/injection, schedule: Q01DX009 (ip), vehicle: Klucel (hydroxypropylcellulose) (HPC)
[18] = dose: 200.0 mg/kg/injection, schedule: Q01DX009 (ip), vehicle: Klucel (hydroxypropylcellulose) (HPC)
[19] = dose: 6.25 mg/kg/injection, schedule: Q01DX009 (ip), vehicle: saline with Tween-80
[20] = dose: 50.0 mg/kg/injection, schedule: Q01DX009 (ip), vehicle: saline with Tween-80
[21] = dose: 100.0 mg/kg/injection, schedule: Q01DX009 (ip), vehicle: saline with Tween-80
[22] = dose: 200.0 mg/kg/injection, schedule: Q01DX009 (ip), vehicle: saline with Tween-80

Measured: T/C

c1ccc(-c2ccc[n+](CCC[n+]3cccc(-c4ccccn4)c3)c2)nc1
inactive: [1] 114 % of control | [2] 114 % of control

CN(C)CCOc1cccc2c1C(=O)c1ccccc1C2=O
inactive: dose: 12.5 mg/kg/injection, schedule: Q01DX009 (ip), vehicle: water 113 % of control | dose: 25.0 mg/kg/injection, schedule: Q01DX009 (ip), vehicle: water 105 % of control | dose: 50.0 mg/kg/injection, schedule: Q01DX009 (ip), vehicle: water 107 % of control | dose: 100.0 mg/kg/injection, schedule: Q01DX009 (ip), vehicle: water 109 % of control

Cc1nc2ccccc2c2c(N)cccc12
inactive: [3] 105 % of control | [4] 102 % of control | [5] 98 % of control | [6] 105 % of control

CC(=NCC(=O)O)c1ccccc1
inactive: [7] 104 % of control | [8] 111 % of control | [9] 109 % of control

CCOc1c(N=Nc2ccccc2)c(C)nn1C(=S)SC
inactive: [10] 110 % of control | [11] 108 % of control | [12] 100 % of control

C=CCC(C(=O)O)C1(C(=O)O)CCCCCC1 (stereo not drawn)
inactive: dose: 100.0 mg/kg/injection, schedule: Q04DX002 (ip), vehicle: saline with Tween-80 94 % of control | dose: 200.0 mg/kg/injection, schedule: Q04DX002 (ip), vehicle: saline with Tween-80 93 % of control | dose: 400.0 mg/kg/injection, schedule: Q04DX002 (ip), vehicle: saline with Tween-80 92 % of control

Nc1nc(N)c2cc(S(=O)(=O)c3nc(-c4ccccc4)cs3)ccc2n1
inactive: [13] 98 % of control | [14] 98 % of control | [15] 105 % of control

COC(=O)c1nc(=S)[nH]c(C(=O)OC)c1C(=O)c1ccc2ccccc2c1
inactive: [10] 94 % of control | [11] 95 % of control | [12] 95 % of control

Clc1ccc(Cl)c(NNc2cc(Cl)ccc2Cl)c1
inactive: dose: 25.0 mg/kg/injection, schedule: Q01DX009 (ip), vehicle: Klucel (hydroxypropylcellulose) (HPC) 96 % of control | [16] 91 % of control | [17] 87 % of control | [18] 102 % of control

Cc1cc2nc3n(c2cc1C)C(=O)c1cc2ccccc2cc1-3
inactive: dose: 3.12 mg/kg/injection, schedule: Q01DX009 (ip), vehicle: saline with Tween-80 97 % of control | [19] 94 % of control | dose: 25.0 mg/kg/injection, schedule: Q01DX009 (ip), vehicle: saline with Tween-80 88 % of control

Nc1nc2ccccc2n1C(=O)C(F)(F)F
inactive: dose: 100.0 mg/kg/injection, schedule: Q01DX001 (ip), vehicle: Klucel (hydroxypropylcellulose) (HPC) 98 % of control | dose: 200.0 mg/kg/injection, schedule: Q01DX001 (ip), vehicle: Klucel (hydroxypropylcellulose) (HPC) 116 % of control

COC(=O)c1cc(=O)n(-c2cccc(OC)c2)c(SC)n1
inactive: dose: 25.0 mg/kg/injection, schedule: Q04DX002 (ip), vehicle: Klucel (hydroxypropylcellulose) (HPC) 107 % of control | dose: 50.0 mg/kg/injection, schedule: Q04DX002 (ip), vehicle: Klucel (hydroxypropylcellulose) (HPC) 103 % of control | dose: 100.0 mg/kg/injection, schedule: Q04DX002 (ip), vehicle: Klucel (hydroxypropylcellulose) (HPC) 104 % of control and 105 % of control

COC(=O)[C@H]1O[C@H]1c1cccc[n+]1[O-]
inactive: dose: 25.0 mg/kg/injection, schedule: Q01DX005 (ip), vehicle: water 100 % of control | dose: 50.0 mg/kg/injection, schedule: Q01DX005 (ip), vehicle: water 97 % of control | dose: 100.0 mg/kg/injection, schedule: Q01DX005 (ip), vehicle: water 100 % of control | dose: 200.0 mg/kg/injection, schedule: Q01DX005 (ip), vehicle: water 102 % of control

CCOC(=O)N1C=CC(=C2C(=C3C=CN(C(=O)OCC)C=C3)C(=C3C=CN(C(=O)OCC)C=C3)C2=C2C=CN(C(=O)OCC)C=C2)C=C1
inactive: dose: 25.0 mg/kg/injection, schedule: Q01DX005 (ip), vehicle: saline with Tween-80 100 % of control | [1] 101 % of control and 102 % of control and 117 % of control | [2] 100 % of control and 105 % of control and 109 % of control | dose: 200.0 mg/kg/injection, schedule: Q01DX005 (ip), vehicle: saline with Tween-80 99 % of control

CC(O)CC1=Nc2c(nc(N)[nH]c2=O)N(C)C1 (stereo not drawn)
inactive: dose: 100.0 mg/kg/injection, schedule: Q04DX003 (ip), vehicle: saline with Tween-80 98 % of control | dose: 200.0 mg/kg/injection, schedule: Q04DX003 (ip), vehicle: saline with Tween-80 97 % of control | dose: 400.0 mg/kg/injection, schedule: Q04DX003 (ip), vehicle: saline with Tween-80 113 % of control

NN(CC(O)COc1ccccc1)C(=O)c1ccccc1O (stereo not drawn)
inactive: [16] 108 % of control | [17] 108 % of control | [18] 106 % of control

CCc1nc2cc(C)ncn2n1
inactive: dose: 100.0 mg/kg/injection, schedule: Q04DX003 (ip), vehicle: saline 100 % of control | dose: 200.0 mg/kg/injection, schedule: Q04DX003 (ip), vehicle: saline 96 % of control | dose: 400.0 mg/kg/injection, schedule: Q04DX003 (ip), vehicle: saline 101 % of control

COc1cc(NCCC2CCCCN2)c2ncccc2c1 (stereo not drawn)
inactive: dose: 6.25 mg/kg/injection, schedule: Q01DX005 (ip), vehicle: saline 100 % of control | dose: 12.5 mg/kg/injection, schedule: Q01DX005 (ip), vehicle: saline 100 % of control

CC1(C)c2ccccc2-c2nc3ccccc3c(N)c2C1O (stereo not drawn)
inactive: [4] 104 % of control | [5] 100 % of control | [6] 104 % of control

CCN(CC)CCOC(=O)c1c(C)oc2cc3c(C(=O)OCCN(CC)CC)c(C)oc3cc12
inactive: [3] 98 % of control | [4] 92 % of control | [5] 94 % of control | [6] 113 % of control

CC(=O)Nc1cc(C)ns1
inactive: [7] 101 % of control | [8] 109 % of control | [9] 101 % of control | dose: 200.0 mg/kg/injection, schedule: Q01DX009 (ip), vehicle: saline 89 % of control

O=S1(=O)CC(N2CCCCC2)C2=C(O1)c1ccccc1N(c1ccccc1)C2 (stereo not drawn)
inactive: [20] 97 % of control | [21] 96 % of control | [22] 97 % of control

CCOc1c(N=Nc2ccc([N+](=O)[O-])cc2)c(C)nn1C(=S)S
inactive: [13] 100 % of control | [14] 95 % of control | [15] 100 % of control

O=C1CCC(N2C(=O)CC3(CCCC3)C2=O)C(=O)N1c1ccc([N+](=O)[O-])cc1 (stereo not drawn)
inactive: [20] 106 % of control | [21] 109 % of control | [22] 99 % of control

O=C(CBr)c1cccc(OC(=O)c2ccccc2)c1
inactive: [19] 108 % of control | dose: 12.5 mg/kg/injection, schedule: Q01DX009 (ip), vehicle: saline with Tween-80 108 % of control
